Assay results as given in US5922891A, “2-substituted 1,8-dihydroxy-9(10H)-anthracenone pharmaceuticals” (priority 1997, dated 1999).

Experiments:
[1] = Inhibition of AAPH-induced lipid peroxidation in bovine brain phospholipid liposomes; type: biochemical; settings: AAPH-induced; bovine brain phospholipid liposomes; N = 3 or more; read-out: LPO IC50 (inhibition of lipid peroxidation)
Procedure: Phospholipids were prepared essentially as described by Gutteridge, J. M. C., (Anal. Biochem., 82: 76-82 (1977)). Bovine brain tissue was cooled on ice, freed from blood vessels and washed repeatedly with 0.15 M NaCl, pH 7.4. The tissue was cut into pieces and then macerated with an ultra-turrax, passed through a fine-meshed sieve, and extracted four times with four times the volume of acetone. The extraction mixture was filtered by suction to remove the acetone, the residue dried under vacuum, and then repeatedly extracted with petroleum ether (40-60) using twice the volume of the original brain homogenate. The combined extracts were filtered, dried at 45° C., and dissolved in ether (one fifth the original brain volume). The mixture was treated with five times the volume of acetone, and the resulting precipitate was collected by suction-filtration, dried and stored under N2 at -20° C. in the dark. Bovine brain phospholipids were weighed into glass tubes and shaken in a vortex mixer (Heidolph) in the presence of five small glass beads (.phi. 4 mm) for 1 minute. The phospholipids were suspended in 0.15 M NaCl, pH 7.4, to a final concentration of 5 mg/ml. The mixture was purged with N2 for 1 minute and vigorously dispersed in a vortex mixer for 5 minutes. The liposomes were allowed to swell for 1 hour at 4° C., and vesicles with a mean size of 1-10 μm were obtained according to the method of Bangham, et al., (J. Mol. Biol., 13:238-252 (1965). The liposomes were stimulated with the azo initiator 2 2'-azobis (2-amidinopropane) hydrochloride according to the method of Gutteridge, J. M. C., (Anal. Biochem. 82:76-82 (1977)).
The following reagents were added to the glass tubes containing stimulating bovine brain phospholipid piposomes in the order and at the final concentrations listed: 0.3 ml HK2 PO4 --KOH buffer, pH 7.4 (30 mM), 0.29 ml double distilled H2 O, 0.2 ml liposomes (1 mg/ml), 0.2 ml FeCl3.H2 O (0.1 mM), 0.01 ml 2-substituted anthracenone compound of the invention (variable concentrations).
Appropriate blanks and controls using the vehicle (acetone) were conducted. The final reaction volumes were standardized to 1.0 ml. The reaction mixtures were incubated for 1 hour at 37° C. in a shaking water bath. […] of 20% (w/v) BHT, 0.5 ml 25% (w/v) HCl and 0.5 ml of 1% 2-thiobarbituric acid were added and the samples were heated at 100° C. for 15 minutes and then cooled in an ice bath (5 minutes). 2 ml of 1-butanol were added and the mixtures were vigorously shaken in a vortex mixer (Heidolph) for 15 seconds. The organic layer was separated by centrifugation at 3000 rpm (15 minutes) and absorbance at 532 nm was measured against butanol.

HaCaT cells = test: Antiproliferative activity against HaCaT cells (human keratinocyte cell line); type: cell-based; settings: 48 h, read-out: AA IC50 (antiproliferative activity)

For `COC(=O)CCCCCc1ccc2c(c1O)C(=O)c1c(O)cccc1C2` [VB, Methyl 6-(9,10-Dihydro-1,8-dihydroxy-9-oxo-2-anthracene) hexaonate], the IC50 [1] was 120 µM.
Work on `COC(=O)CCCCc1ccc2c(c1O)C(=O)c1c(O)cccc1C2` [IVB, Methyl 5-(9,10-Dihydro-1,8-dihydroxy-9-oxo-2-anthracene)pentanoate] yielded an IC50 (HaCaT cells) of 1.8 µM and an IC50 [1] of 62 µM.
For `COC(=O)C(c1ccc2c(c1O)C(=O)c1c(O)cccc1C2)C(C)C` (stereo not drawn) [VIIIB, Methyl 2-(9,10-Dihydro-1,8-dihydroxy-9-oxo-2-anthracene)-3-methylbutanoate], the IC50 [1] was 165 µM.
Work on `CC(C(=O)N(C)O)c1ccc2c(c1O)C(=O)c1c(O)cccc1C2` (stereo not drawn) [VIID, N-Hydroxy-N-methyl-2-(9,10-dihydro-1,8-dihydroxy-9-oxo-2-anthracene)propionamide] yielded an IC50 (HaCaT cells) of 1.5 µM and an IC50 [1] of 8 µM.
